In patent US20100152434A1, “Protein Kinase-binding Nucleosides and Associated Methods” (priority 2007, published 2010):
Read-outs that look alike come from different tables or passages of the source.

Columns and labels:
UACC-257 [1] = tested on: UACC-257
HCC-2998 = assay: cells; details: Homo sapiens, HCC 2998, 48 h
ACHN = assay: cells; details: Homo sapiens, 48 h
NCI-H23 = assay: cells; details: Homo sapiens, NCI-H23, 48 h
[2] = tested on: 60 different human tumor cell lines (the NCI 60); assay: cells; details: read-out: LC50 value for each cell line
SK-OV-3 = assay: cells; details: Homo sapiens, SK-OV-3, 48 h
OVCAR-3 = assay: cells; details: Homo sapiens, OVCAR-3, 48 h
SK-MEL-28 = assay: cells; details: Homo sapiens, SK-MEL-28, 48 h
MDA-MB-435 [3] = assay: cells; details: Homo sapiens, MDA-MB-435, 48 h
OVCAR-8 = assay: cells; details: Homo sapiens, OVCAR-8, 48 h
BT-549 = assay: cells; details: Homo sapiens, BT-549, 48 h
UACC-257 [4] = assay: cells; details: Homo sapiens, UACC-257, 48 h
UACC-62 = assay: cells; details: Homo sapiens, UACC-62, 48 h
OVCAR-5 = assay: cells; details: Homo sapiens, OVCAR-5, 48 h
HOP-92 = assay: cells; details: Homo sapiens, HOP-92, 48 h
MDA-MB-435 [5] = details: MDA-MB-435
SNB-19 = assay: cells; details: Homo sapiens, SNB-19, 48 h
PC-3 = assay: cells; details: Homo sapiens, PC-3, 48 h
cells = details: Homo sapiens, 48 h, read-out: LC50
COLO 205 = assay: cells; details: Homo sapiens, COLO 205, 48 h
KM12 = assay: cells; details: Homo sapiens, KM12, 48 h
SW-620 = assay: cells; details: Homo sapiens, SW-620, 48 h
[6] = Log10 Concentration −4.0, Molar
[7] = Log10 Concentration −5.0, Molar
[8] = Log10 Concentration −6.0, Molar
[9] = Log10 Concentration −7.0, Molar
[10] = Log10 Concentration −8.0, Molar

In the case of `CCOC(=O)C[C@@H]1C(O[Si](C)(C)C(C)(C)C)[C@H](n2cnc3c(NC(=O)Nc4ccccc4)ncnc32)O[C@@H]1CNC(=O)NC` (some centres unmarked) [Compound 10], the TGI (UACC-257 [1]; 48 h) is reported as over 1.00E−4 Molar, the “Percent Growth” value (UACC-257 [1]; [6]) is reported as 9% and the “Percent Growth” value (UACC-257 [1]; [7]) is reported as 34%. The “Percent Growth” value (UACC-257 [1]; [8]) was 99%, the “Percent Growth” value (UACC-257 [1]; [9]) was 102% and the “Percent Growth” value (UACC-257 [1]; [10]) was 102%. For the same compound, the TGI (HCT-116; 48 h) was 1.61E−5 Molar, the “Percent Growth” value (HCT-116; [6]) was −88% and the “Percent Growth” value (HCT-116; [7]) was 23%. For the same compound, the “Percent Growth” value (HCT-116; [8]) was 78%, the “Percent Growth” value (HCT-116; [9]) was 113% and the “Percent Growth” value (HCT-116; [10]) was 93%. The GI50 (HCC-2998) was over 100 µM, the CC50 (HCC-2998; read-out: LC50) was over 100 µM and the GI50 (ACHN) was 8.55 µM. For the same compound, the CC50 (ACHN; read-out: LC50) was over 100 µM, the GI50 (NCI-H23) was 33.3 µM and the CC50 (NCI-H23; read-out: LC50) was over 100 µM. The CC50 [2] was over 100 µM, the TGI (NCI-H460; 48 h) was 2.50E−5 Molar and the “Percent Growth” value (NCI-H460; [6]) was −49%. The “Percent Growth” value (NCI-H460; [7]) was 32%, the “Percent Growth” value (NCI-H460; [8]) was 101% and the “Percent Growth” value (NCI-H460; [9]) was 102%. The “Percent Growth” value (NCI-H460; [10]) was 102%, the TGI (U251; 48 h) was 2.09E−5 Molar and the “Percent Growth” value (U251; [6]) was −61%. The “Percent Growth” value (U251; [7]) was 28%, the “Percent Growth” value (U251; [8]) was 94% and the “Percent Growth” value (U251; [9]) was 95%. The “Percent Growth” value (U251; [10]) was 98%, the GI50 (SK-OV-3) was 21 µM and the CC50 (SK-OV-3; read-out: LC50) was over 100 µM. It also gave a GI50 (OVCAR-3) of 4.59 µM, a CC50 (OVCAR-3; read-out: LC50) of 91.3 µM and a GI50 (SK-MEL-28) of 6.85 µM. The CC50 (SK-MEL-28; read-out: LC50) was 48.7 µM, the GI50 (MDA-MB-435 [3]) was 6.21 µM and the CC50 (MDA-MB-435 [3]; read-out: LC50) was over 100 µM. For the same compound, the GI50 (OVCAR-8) was 4.92 µM, the CC50 (OVCAR-8; read-out: LC50) was over 100 µM and the GI50 (BT-549) was over 100 µM. It also gave a CC50 (BT-549; read-out: LC50) of over 100 µM, a GI50 (UACC-257 [4]) of 5.68 µM and a CC50 (UACC-257 [4]; read-out: LC50) of over 100 µM. The GI50 (UACC-62) was over 100 µM, the CC50 (UACC-62; read-out: LC50) was over 100 µM and the TGI (SK-MEL-5; 48 h) was over 1.00E−4 Molar. For the same compound, the “Percent Growth” value (SK-MEL-5; [6]) was 11%, the “Percent Growth” value (SK-MEL-5; [7]) was 28% and the “Percent Growth” value (SK-MEL-5; [8]) was 89%. For the same compound, the “Percent Growth” value (SK-MEL-5; [9]) was 100%, the “Percent Growth” value (SK-MEL-5; [10]) was 96% and the GI50 (OVCAR-5) was 31.1 µM. The CC50 (OVCAR-5; read-out: LC50) was over 100 µM, the GI50 (HOP-92) was under 0.01 µM and the CC50 (HOP-92; read-out: LC50) was 41.2 µM. The TGI (MDA-MB-435 [5]; 48 h) was over 1.00E−4 Molar, the “Percent Growth” value (MDA-MB-435 [5]; [6]) was 8% and the “Percent Growth” value (MDA-MB-435 [5]; [7]) was 40%. The “Percent Growth” value (MDA-MB-435 [5]; [8]) was 89%, the “Percent Growth” value (MDA-MB-435 [5]; [9]) was 92% and the “Percent Growth” value (MDA-MB-435 [5]; [10]) was 95%. It also gave a GI50 (SNB-19) of 29 µM, a CC50 (SNB-19; read-out: LC50) of over 100 µM and a GI50 (PC-3) of 2.25 µM. For the same compound, the CC50 (PC-3; read-out: LC50) was 12.5 µM, the TGI (SN12C; 48 h) was over 1.00E−4 Molar and the “Percent Growth” value (SN12C; [6]) was 11%. The “Percent Growth” value (SN12C; [7]) was 48%, the “Percent Growth” value (SN12C; [8]) was 103% and the “Percent Growth” value (SN12C; [9]) was 101%. For the same compound, the “Percent Growth” value (SN12C; [10]) was 101%, the CC50 (cells) was 17.9 µM and the GI50 (COLO 205) was 3.84 µM. For the same compound, the CC50 (COLO 205; read-out: LC50) was over 100 µM, the GI50 (KM12) was 3.95 µM and the CC50 (KM12; read-out: LC50) was over 100 µM. It also gave a GI50 (SW-620) of 4.8 µM, a CC50 (SW-620; read-out: LC50) of over 100 µM and a TGI (CCRF-CEM; 48 h) of 8.86E−5 Molar. For the same compound, the “Percent Growth” value (CCRF-CEM; [6]) was −2%, the “Percent Growth” value (CCRF-CEM; [7]) was 41% and the “Percent Growth” value (CCRF-CEM; [8]) was 92%. For the same compound, the “Percent Growth” value (CCRF-CEM; [9]) was 100%, the “Percent Growth” value (CCRF-CEM; [10]) was 96% and the TGI (SF-539; 48 h) was over 1.00E−4 Molar. The “Percent Growth” value (SF-539; [6]) was 17%, the “Percent Growth” value (SF-539; [7]) was 29% and the “Percent Growth” value (SF-539; [8]) was 103%. For the same compound, the “Percent Growth” value (SF-539; [9]) was 91% and the “Percent Growth” value (SF-539; [10]) was 97%.
